Where two headings read alike, the source gives them in different places.

The subject of experiment [1] is L929 mouse fibroblast. The experiment can be described thus: CYT vt: cytotoxicity viability assay. The format is cell-based.
In experiment [2] the test system is P. falciparum 3D7 strain. The experiment can be described thus: MAL vt: Malaria viability assay. Type of experiment: cell-based. The note with it: Plasmodium falciparum.
Experiment [3] deals with T. brucei strain S427. As to the kind of experiment: HAT vt: Human African trypanosoma viability assay. Type of experiment: cell-based. Conditions: 72 hour, resazurin, read-out: measured activity (IC50), HAT vt, TbbS427. (The colour change of resazurin is a common sign of viable cells or microbes.)
Experiment [4] relates to L. donovani strain MHOM/SD/00/LS. As to the kind of experiment: LEI axe: Leishmania axenic amastigote assay. Type of experiment: cell-based.
The test system of experiment [5] is Brugia malayi. The experiment can be described thus: Endoparasites_DR: endoparasites dose response assay, B. malayi. Type of experiment: cell-based.
Experiment [6] deals with Dirofilaria immitis. As to the kind of experiment: Endoparasites_DR: endoparasites dose response assay, D. immitis. The format is cell-based. Conditions: 72 h, read-out: measured activity (EC50), Endoparasites_DR, D. immitis.
In experiment [7] the test system is parasite species and L929 mouse fibroblast. As to the kind of experiment: In vitro screening of compounds against parasite panel and mammalian cell line (overall statements). Type of experiment: cell-based.
Experiment [8] concerns human cancer cell lines. Set-up: method as in PMID 23526814. The note with it: 8b and 10c therein; cited from earlier work.
Experiment [9] has as its system Haemonchus contortus. The experiment can be described thus: microbe, parasite or virus in culture. The format is cell-based. The note with it: 96 hour, read-out: measured activity (EC50), Endoparasites_DR, H. contortus.
The mark [10] stands for this setting: Mus musculus, L929, read-out: measured activity (IC50), CYT vt, L929.
Where [11] appears, read: 3D7, 0.25 h, timepoint 15 minute, read-out: measured activity (IC50), MAL vt, PfDd2.
Setting [12] is: 72 hour, axenic amastigotes, resazurin, read-out: measured activity (IC50), LEI axe, Ld1S.
Where [13] appears, read: Mus musculus, Table 2, column H. sapiens, same values as L929 in Table 1, read-out: EC50(IC50).
Setting [14] is: 120 h, 5 day, read-out: measured activity (EC50), Endoparasites_DR, B. malayi.
The mark [15] stands for this setting: Table 2, column B. malayi, read-out: EC50(IC50).

A word on the IC50: it is the concentration at which inhibition is half-maximal. `O=C(CCCCCSc1nc2ccccc2c(=O)[nH]1)NO` [MC1862]: the IC50 in experiment [1] (setting [10]) is 7120 nM; in experiment [2] (setting [11]), 1150 nM.
As for `COc1cc(-c2ccccc2)nc(SCc2ccc(/C=C/C(=O)NO)cc2)n1` [MC2126], the IC50 in [1] (setting [10]) is 1760 nM; in experiment [3], 441 nM; in experiment [4] (setting [12]), more than 5000 nM; in experiment [2] (setting [11]), 1920 nM.
Usually EC50 stands for the concentration that produces a half-maximal response. On to `Cn1cc(/C=C/C(=O)c2cccc(NC(=O)OC(C)(C)C)c2)cc1C(=O)NO` [MC2776], for which the IC50 in [1] (setting [13]) and in [8] was more than 10000 nM each time. In addition, the EC50 in [5] (setting [14]) is 4390 nM; in experiment [5] (setting [15]) it was 4390 nM; in experiment [6], more than 10000 nM. Further, the “efficacy in the protists” value in [7] (T. brucei, L. donovani, P. falciparum) is “did not show any efficacy”.
Regarding `O=C(CCCCCCC(=O)Nc1ccccc1)NO` [GRM1, SAHA, reference compound], in experiment [2] (setting [11]), the IC50 was 152 nM.
Turning to `CN1CCc2c(c3ccccc3n2Cc2ccc(C(=O)NO)cc2)C1` [GRM2, Tubastatin, reference compound], the IC50 in experiment [1] (setting [10]) was 6220 nM; in experiment [3], 2700 nM; in [4] (setting [12]) it was more than 5000 nM.
Consider `CC(C)(C)OC(=O)Nc1cccc(C(=O)/C=C/c2ccc(/C=C/C(=O)NO)cc2)c1` [MC2780], for which the IC50 in experiment [1] (setting [13]) was determined as 4810 nM; in experiment [3], 623 nM; in experiment [4] (setting [12]) it was 473 nM; in experiment [4] (Table 2, column L. donovani, read-out: EC50(IC50)), 470 nM; in experiment [2] (setting [11]), 56 nM; in experiment [2] (3D7, Table 2, column P. falciparum, read-out: EC50(IC50)), 60 nM. For the same compound, the EC50 came to 2530 nM in experiment [5] (setting [14]), 2530 nM in [5] (setting [15]) and 8140 nM in experiment [6]. In addition, the activity across parasites result in experiment [7] was “pan-parasite potential”. Further, the “IC50 on human cancer cell lines” value in experiment [8] was “more potent IC50”.
Turning to `CCCCCCCC(=O)SCC/C=C/[C@@H]1CC(=O)NCc2nc(cs2)C2=N[C@@](C)(CS2)C(=O)N[C@@H](C(C)C)C(=O)O1` [SD-L-148, Largazole, reference compound], the IC50 in [1] (setting [10]) turned out to be 101 nM. Moreover, in experiment [9], the EC50 is 7100 nM.
In the case of `O=C(CCCCSc1nc(-c2ccc(-c3ccccc3)cc2)cc(=O)[nH]1)NO` [MC1742], the IC50 is 1510 nM in [1] (setting [10]) and less than 10 nM in [2] (setting [11]).
Turning to `CC(C)(C)OC(=O)Nc1cccc(-c2cc(C(=O)NCCCCCCC(=O)NO)no2)c1` [MC2727a], the figures for the IC50 in [1] (setting [10]) and in experiment [2] (setting [11]) were 2350 nM and 960 nM, respectively.
In the case of `O=C(/C=C/c1ccc(NC(=O)C(Cc2ccccc2)c2ccccc2)cn1)NO` (stereo not drawn) [MC2625], the IC50 was 311 nM in experiment [1] (setting [10]), 1180 nM in [3], more than 5000 nM in [4] (setting [12]) and 22 nM in experiment [2] (setting [11]).
Take `CN(C)Cc1ccc(S(=O)(=O)n2ccc3cc(/C=C/C(=O)NO)ccc32)cc1` [MC3031]: the IC50 in experiment [1] (setting [10]) is 555 nM; in experiment [3] it was 267 nM; in [4] (setting [12]), more than 5000 nM.
As for `CC(C)(C)OC(=O)Nc1ccc(-c2cc(C(=O)NCCCCCCC(=O)NO)no2)cc1` [MC2726], the IC50 in experiment [1] (L929 mouse fibroblast, read-out: measured activity (IC50), CYT vt, L929) was found to be 1920 nM; in [2] (setting [11]), 189 nM.

(Values after article PMC4581690, “Targeting Lysine Deacetylases (KDACs) in Parasites” (PLoS Neglected Tropical Diseases, 2015).)
